The target in assay [1] is T1, mGAT4 (Mus musculus, UniProt P31650).
T1 sequence (P31650 1-627): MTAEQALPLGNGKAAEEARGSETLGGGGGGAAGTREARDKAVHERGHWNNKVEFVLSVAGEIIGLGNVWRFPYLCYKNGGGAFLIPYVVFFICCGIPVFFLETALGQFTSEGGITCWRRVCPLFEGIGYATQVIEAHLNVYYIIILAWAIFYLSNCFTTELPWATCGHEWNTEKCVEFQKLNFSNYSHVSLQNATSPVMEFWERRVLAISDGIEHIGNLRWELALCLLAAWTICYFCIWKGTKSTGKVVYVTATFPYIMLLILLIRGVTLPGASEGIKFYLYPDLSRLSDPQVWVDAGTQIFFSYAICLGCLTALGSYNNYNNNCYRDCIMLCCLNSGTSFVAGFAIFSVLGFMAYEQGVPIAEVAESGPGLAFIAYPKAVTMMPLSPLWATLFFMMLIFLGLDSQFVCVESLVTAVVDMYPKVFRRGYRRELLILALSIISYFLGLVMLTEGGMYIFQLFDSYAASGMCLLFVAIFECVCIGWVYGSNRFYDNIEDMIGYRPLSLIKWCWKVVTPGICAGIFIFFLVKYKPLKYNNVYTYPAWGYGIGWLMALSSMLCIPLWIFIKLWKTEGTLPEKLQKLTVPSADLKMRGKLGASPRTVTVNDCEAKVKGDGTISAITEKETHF
Nature of the assay: [3H]GABA uptake assay, mGAT4. Particulars: GABA uptake assay; mGAT4 corresponds to GAT3; read-out: mGAT4 IC50. It counts as cell-based.

The target of assay [2] is T2, mGAT3 (Mus musculus, UniProt P31649).
T2 sequence (P31649 1-602): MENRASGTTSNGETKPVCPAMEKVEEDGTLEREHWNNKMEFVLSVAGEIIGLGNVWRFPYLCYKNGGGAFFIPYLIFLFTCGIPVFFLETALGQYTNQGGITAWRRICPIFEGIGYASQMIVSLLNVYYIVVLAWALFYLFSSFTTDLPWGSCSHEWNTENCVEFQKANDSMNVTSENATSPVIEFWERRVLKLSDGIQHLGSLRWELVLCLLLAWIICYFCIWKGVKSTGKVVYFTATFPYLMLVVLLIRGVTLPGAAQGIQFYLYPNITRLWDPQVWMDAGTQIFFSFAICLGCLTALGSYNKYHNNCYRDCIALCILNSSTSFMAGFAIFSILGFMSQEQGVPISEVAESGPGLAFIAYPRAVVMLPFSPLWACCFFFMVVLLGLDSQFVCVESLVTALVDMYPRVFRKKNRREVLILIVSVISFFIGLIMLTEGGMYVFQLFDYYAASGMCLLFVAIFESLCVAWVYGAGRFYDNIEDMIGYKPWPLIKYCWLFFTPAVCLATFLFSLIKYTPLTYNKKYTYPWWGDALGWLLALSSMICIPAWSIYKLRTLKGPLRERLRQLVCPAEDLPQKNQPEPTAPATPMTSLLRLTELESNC
Nature of the assay: [3H]GABA uptake assay, mGAT3. It counts as cell-based. Particulars: GABA uptake assay; read-out: mGAT3 IC50.

Assay [3] addresses T3, mGAT1 (Mus musculus, UniProt P31648). Nature of the assay: MS Binding Assay with NO 711 as marker. Particulars: for Ki: MS Binding Assay, NO 711 marker, read-out: pKi ± SEM toward mGAT1 (converted); for percent of remaining NO711 binding, mGAT1: 100 μM inhibitor.
The target in assay [4] is T4, mGAT2 (Mus musculus, UniProt P31651).
T4 sequence (P31651 1-614): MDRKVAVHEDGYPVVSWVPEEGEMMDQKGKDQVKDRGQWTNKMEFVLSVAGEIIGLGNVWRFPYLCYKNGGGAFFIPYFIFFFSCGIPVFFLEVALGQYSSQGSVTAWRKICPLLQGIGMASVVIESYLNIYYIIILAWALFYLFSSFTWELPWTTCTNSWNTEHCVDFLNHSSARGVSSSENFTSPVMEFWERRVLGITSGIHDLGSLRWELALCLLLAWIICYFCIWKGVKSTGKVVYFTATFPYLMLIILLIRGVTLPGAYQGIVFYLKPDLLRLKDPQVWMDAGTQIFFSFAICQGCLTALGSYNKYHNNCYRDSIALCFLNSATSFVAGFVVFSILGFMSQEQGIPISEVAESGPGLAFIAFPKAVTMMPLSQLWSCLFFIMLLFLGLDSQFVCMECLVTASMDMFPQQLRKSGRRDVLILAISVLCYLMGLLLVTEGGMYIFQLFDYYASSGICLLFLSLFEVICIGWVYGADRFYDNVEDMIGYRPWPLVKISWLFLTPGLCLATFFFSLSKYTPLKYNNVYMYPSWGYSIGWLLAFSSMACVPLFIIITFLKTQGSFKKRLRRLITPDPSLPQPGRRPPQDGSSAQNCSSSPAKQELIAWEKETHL
Description: [3H]GABA uptake assay, mGAT2. Type of assay: cell-based. Particulars: GABA uptake assay; read-out: mGAT2 IC50.

Assay [5] has as its target T5, eqBuChE (Equus caballus, UniProt P81908).
T5 construct: purchased Sigma-Aldrich
Description: biochemical. Particulars: means±SEM of at least three experiments.

Assay [6] deals with T6, eeAChE (Electrophorus electricus, UniProt O42275).
T6 construct: purchased Sigma-Aldrich
T6 sequence (O42275 24-633): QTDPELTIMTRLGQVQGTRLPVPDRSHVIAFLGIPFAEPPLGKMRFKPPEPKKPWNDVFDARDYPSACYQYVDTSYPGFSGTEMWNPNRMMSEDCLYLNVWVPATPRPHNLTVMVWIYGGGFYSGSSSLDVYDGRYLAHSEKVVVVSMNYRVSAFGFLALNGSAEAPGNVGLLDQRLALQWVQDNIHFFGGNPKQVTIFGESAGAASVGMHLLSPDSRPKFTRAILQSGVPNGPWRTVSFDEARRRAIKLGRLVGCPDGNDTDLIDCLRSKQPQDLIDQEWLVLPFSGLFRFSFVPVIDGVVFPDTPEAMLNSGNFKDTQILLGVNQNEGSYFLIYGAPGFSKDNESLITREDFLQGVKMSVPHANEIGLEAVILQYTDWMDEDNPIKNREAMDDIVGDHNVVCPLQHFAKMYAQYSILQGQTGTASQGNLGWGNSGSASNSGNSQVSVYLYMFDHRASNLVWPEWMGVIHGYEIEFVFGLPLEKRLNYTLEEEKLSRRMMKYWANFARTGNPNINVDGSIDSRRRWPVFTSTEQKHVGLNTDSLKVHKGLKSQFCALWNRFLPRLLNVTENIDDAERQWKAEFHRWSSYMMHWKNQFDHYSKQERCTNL
Nature of the assay: Cholinesterase inhibition, Ellman's protocol, eeAChE. Type of assay: biochemical. To be noted: read-out: eeAChE % inh. A general note: In Ellman's method for cholinesterases, released thiocholine reacts with DTNB.
Description: In vitro pharmacological assays.
The in vitro inhibitory activity toward cholinesterases (eeAChE, eqBuChE,
The target compounds were tested for their inhibitory potency against cholinesterases using
Ellman’s protocol[32] modified for 96-well microplates.
The stock solutions of the
target compounds were prepared in DMSO and diluted with water, giving the desired final
concentrations. The enzymes were prepared as 5 U/mL aqueous stock solutions and diluted
(AChE or BuChE) were added to the reaction mixture in the wells, containing 25 μL of the
target compound (in case of blank samples – water or water/DMSO mixture), 200 μL of 0.1
M phosphate buffer (pH = 8.0) and 20 μL of 5,5'-dithiobis-(2-nitrobenzoic acid) DTNB
All those reagents were preincubated for 5 min at 25 °C for the reactions with the
animal enzymes (eeAChE or eqBuChe) and 36 °C for the human enzyme ( hBuChE) tests. The
enzymatic reaction was initiated by the addition of 20 μL of substrate acetylthiocholine iodide
using the EnSpire multimode microplate reader (PerkinElmer, Waltham, MA, USA). Target
compounds were tested at the screening concentrations of 10 μM or 1 µM for inhibitory
potencies towards animal cholinesterases or human enzyme, respectively. Percent of enzyme
inhibition was calculated based on the formula 100 -(S/B)x100, where S and B were the
respective enzyme activities with and without the test compound, respectively. Compounds
with the enzyme inhibitory activities at 10 μM better than 50% ( eeAChE or eqBuChe) and at
were based on the absorbance measured at seven different inhibitor concentrations, then
percentages of enzymes’ inhibition were plotted against the applied inhibitor concentrations
using nonlinear regression (GraphPad Prism 9; GraphPad Software, San Diego, CA, USA).
All the experiments were performed in
a %inh. at an inhibitor concentration of 10 µM

Assay [7] deals with T3, mGAT1. Nature of the assay: [3H]GABA uptake assay, mGAT1. Particulars: GABA uptake assay; read-out: mGAT1 IC50. It counts as cell-based.
The target in assay [8] is T7, human butyrylcholinesterase (hBuChE) (Homo sapiens, UniProt P06276).
T7 construct: from human plasma was from Vivonics (Bedford, MA, USA); purchased Vivonics (Bedford, MA, USA); host or cells: human plasma
T7 sequence (P06276 29-602): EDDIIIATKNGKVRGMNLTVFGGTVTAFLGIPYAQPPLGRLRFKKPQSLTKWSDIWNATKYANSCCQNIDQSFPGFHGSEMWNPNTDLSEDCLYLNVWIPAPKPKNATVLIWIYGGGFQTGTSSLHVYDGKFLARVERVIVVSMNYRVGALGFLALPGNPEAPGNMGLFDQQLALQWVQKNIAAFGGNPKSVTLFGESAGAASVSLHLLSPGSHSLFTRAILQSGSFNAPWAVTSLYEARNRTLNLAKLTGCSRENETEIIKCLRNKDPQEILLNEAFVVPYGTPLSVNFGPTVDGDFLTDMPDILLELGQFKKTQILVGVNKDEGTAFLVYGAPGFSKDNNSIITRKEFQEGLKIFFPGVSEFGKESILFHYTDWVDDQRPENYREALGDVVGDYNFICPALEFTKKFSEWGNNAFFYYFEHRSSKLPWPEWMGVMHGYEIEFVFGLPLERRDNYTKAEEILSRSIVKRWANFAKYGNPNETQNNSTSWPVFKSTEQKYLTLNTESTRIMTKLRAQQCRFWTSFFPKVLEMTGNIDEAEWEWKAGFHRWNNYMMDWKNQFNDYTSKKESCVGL
Nature of the assay: biochemical. Particulars: for IC50: means±SEM of at least three experiments; for inhibition at 1 µM: inhibitor concentration 1 μM, read-out: hBuChE % inh.

The target of assay [9] is T8, human serotonin 5-HT6 receptor (Homo sapiens, UniProt P50406).
T8 construct: host or cells: 1321N1
T8 sequence (P50406 whole entry): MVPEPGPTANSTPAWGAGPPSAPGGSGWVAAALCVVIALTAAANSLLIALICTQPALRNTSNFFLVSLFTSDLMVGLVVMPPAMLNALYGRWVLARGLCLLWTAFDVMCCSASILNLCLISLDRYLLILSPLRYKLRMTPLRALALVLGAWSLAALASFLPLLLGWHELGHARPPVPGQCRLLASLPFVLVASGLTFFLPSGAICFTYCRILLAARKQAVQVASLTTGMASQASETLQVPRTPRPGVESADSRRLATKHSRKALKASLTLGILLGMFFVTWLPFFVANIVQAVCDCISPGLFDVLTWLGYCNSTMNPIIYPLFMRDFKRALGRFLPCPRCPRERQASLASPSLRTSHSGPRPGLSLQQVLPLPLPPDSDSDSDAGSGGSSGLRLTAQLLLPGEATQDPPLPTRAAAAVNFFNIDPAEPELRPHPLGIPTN
Description: cAMP 5-HT6 functional assay. It counts as cell-based. To be noted: % of maximal antagonist response (SB258585 10^-5M); 22 nM serotonin.
Description: Functional assays for 5-HT6 receptor
Test compounds were dissolved in dimethyl sulfoxide (DMSO) at a concentration of 10 mM.
Serial dilutions were prepared in a 96-well microplate in assay buffer, and 8 concentrations
were tested. For the 5-HT6, adenylyl cyclase activity was monitored using cryopreserved
cells were resuspended in stimulation buffer (HBSS, 5 mM HEPES, 0.5 IBMX, and 0.1%
BSA at pH 7.4) at 2x10^5 cells/ml. The same volume (10 μl) of cell suspension was added to
the tested compounds. Samples were loaded onto a white opaque half-area 96-well
reference agonist for the 5-HT6 receptor. The agonist and antagonist were added
simultaneously. Cell stimulation was performed for 30 minutes at room temperature. After
incubation, cAMP measurements were performed with homogeneous TR-FRET immunoassay
using the LANCE Ultra cAMP kit (PerkinElmer, USA). The volume of 10 μl of EucAMP
Tracer Working Solution and 10 μl of ULight-anti-cAMP Tracer Working Solution were
added, mixed, and incubated for 1 h. The TR-FRET signal was read on an EnVision
microplate reader (PerkinElmer, USA). IC 50 and EC 50 were determined by nonlinear
regression analysis using GraphPad Prism 9.0 software.

T5 sequence (P81908 whole entry): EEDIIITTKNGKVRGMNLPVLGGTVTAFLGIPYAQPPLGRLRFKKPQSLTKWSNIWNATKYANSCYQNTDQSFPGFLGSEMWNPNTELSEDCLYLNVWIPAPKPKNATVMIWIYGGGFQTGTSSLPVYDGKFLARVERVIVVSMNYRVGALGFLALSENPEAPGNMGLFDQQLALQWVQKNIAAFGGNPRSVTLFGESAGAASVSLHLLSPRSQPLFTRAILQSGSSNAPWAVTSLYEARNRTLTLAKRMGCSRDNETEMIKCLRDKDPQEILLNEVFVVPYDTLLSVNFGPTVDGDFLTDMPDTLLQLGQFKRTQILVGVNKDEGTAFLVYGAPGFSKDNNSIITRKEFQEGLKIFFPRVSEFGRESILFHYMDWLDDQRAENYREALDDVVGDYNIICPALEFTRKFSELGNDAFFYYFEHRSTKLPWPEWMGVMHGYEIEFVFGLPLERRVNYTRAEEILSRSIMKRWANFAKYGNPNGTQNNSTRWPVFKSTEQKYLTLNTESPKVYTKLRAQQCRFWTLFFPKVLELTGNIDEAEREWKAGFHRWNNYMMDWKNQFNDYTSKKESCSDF

A word on the IC50: it is the concentration needed to halve the response being measured. Turning to `O[C@H](CNCc1ccccc1)[C@H](Cc1ccccc1)NC1c2ccccc2-c2ccccc21` [Compound 1], the IC50 came out at 7.76 ± 1.99 µM in assay [1]; 7.08 ± 1.15 µM in assay [2]; 9.77 ± 1.82 µM in [4]; 0.63 ± 0.02 µM in assay [5]; 11 µM in [7]; 0.2 µM in [8]. Also, the Ki in [3] was 49 µM. Also, the inhibition at 10 µM in [6] was below 10%.
Take `COc1ccccc1CNC[C@H](O)[C@H](Cc1ccccc1)NC1c2ccccc2-c2ccccc21` [Compound 2]: the IC50 in [1] was 6.17 ± 0.57 µM; in assay [4], 13.2 µM; in assay [5] it was 0.28 ± 0.01 µM; in [7] it was 6.31 ± 1.02 µM; in assay [8], 0.27 ± 0.01 µM. For the same compound, the Ki in assay [3] was 33.9 µM. For the same compound, the inhibition at 10 µM in assay [6] was below 10%.
On to `COc1cccc(CNC[C@H](O)[C@H](Cc2ccccc2)NC2c3ccccc3-c3ccccc32)c1` [Compound 3], for which the IC50 in assay [1] is 7.08 ± 0.49 µM; in [4], 12 µM; in [5] it was 2.2 ± 0.1 µM; in [7], 7.41 ± 0.34 µM. In assay [3], the Ki is 30.9 µM. Further, the inhibition at 10 µM in [6] was below 10%. Further, the inhibition at 1 µM in assay [8] was determined as 67.7%.
Turning to `CC(C)(C)c1cccc(CNC[C@@H](O)[C@H](Cc2ccccc2)NC2c3ccccc3-c3ccccc32)c1` [Compound 4], the IC50 was 8.91 ± 1.03 µM in [2], 26.3 µM in assay [4], 0.69 ± 0.04 µM in [5] and 14.8 µM in assay [7]. Besides, in [3], the “percent of remaining NO711 binding, mGAT1” value turned out to be 91%. For the same compound, the inhibition at 10 µM in assay [6] is below 10%. Moreover, the inhibition at 1 µM in assay [8] worked out at 68%.
In the case of `O[C@@H](CNCC1CCCCC1)[C@H](Cc1ccccc1)NC1c2ccccc2-c2ccccc21` [Compound 5], the IC50 in [2] turned out to be 11.5 µM; in [4], 10.7 µM; in assay [5], 0.96 ± 0.03 µM. Further, in assay [3], the “percent of remaining NO711 binding, mGAT1” value was found to be 72%. For the same compound, in [6], the inhibition at 10 µM turned out to be 19.9%. In addition, in [8], the inhibition at 1 µM came to 76.5%.
`COc1ccc(NS(=O)(=O)c2ccc(I)cc2)cc1N1CCN(C)CC1` [SB258585, reference compound]: in [9], the “5-HT6 antagonist mode E max %” value was 100%.

The values above are taken from article PMC11796312, “Multifunctional, Fluorene‐Based Modulator of Cholinergic and GABAergic Neurotransmission as a Novel Drug Candidate for Palliative Treatment of Alzheimer's Disease” (Angewandte Chemie (International Ed. in English), 2024).
